Assay results reported in paper PMC3003306 (Structure (London, England : 1993), 2010).

Molecular target: T1, IGPS (HisF-HisH heterodimer), glutaminase site in HisH (Thermotoga maritima, UniProt Q9X0C8)
T1 sequence (Q9X0C8 1-201): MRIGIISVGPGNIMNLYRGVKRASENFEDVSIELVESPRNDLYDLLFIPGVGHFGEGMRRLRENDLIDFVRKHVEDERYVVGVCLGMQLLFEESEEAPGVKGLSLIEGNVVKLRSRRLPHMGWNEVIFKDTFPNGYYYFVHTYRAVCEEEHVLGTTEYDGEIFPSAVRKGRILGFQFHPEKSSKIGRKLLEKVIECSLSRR
T1 sequence (Q9X0C6 1-253 partner): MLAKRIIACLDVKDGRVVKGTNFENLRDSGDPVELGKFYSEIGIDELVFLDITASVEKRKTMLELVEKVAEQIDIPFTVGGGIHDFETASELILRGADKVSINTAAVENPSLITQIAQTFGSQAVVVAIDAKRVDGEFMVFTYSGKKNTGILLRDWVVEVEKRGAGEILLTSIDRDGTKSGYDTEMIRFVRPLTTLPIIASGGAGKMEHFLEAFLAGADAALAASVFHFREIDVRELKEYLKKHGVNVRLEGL
Experiment: covalent modification of HisH C84 followed by DTNB analysis
Type: binding
Details: 1.5 molar equivalents acivicin, room temperature, HisH active site nucleophile C84

Compound: N[C@H](C(=O)O)[C@@H]1CC(Cl)=NO1 [acivicin]
- covalent modification of HisH C84 followed by DTNB analysis; NMR: IGPS (HisH-C84) was covalently modified with acivicin
